ChEMBL document CHEMBL1153577, “2D- and 3D-QSAR studies on 54 anti-tumor Rubiaceae-type cyclopeptides” (Eur J Med Chem, 2009)

These compounds were tested on P388 (assay: Cytotoxicity against mouse P388 cell). Settings: Mus musculus, P388.
Type: functional, cell-based

Going from `C/C=C/c1ccc(C[C@H]2C(=O)N[C@@H](C)C(=O)N(C)[C@H]3Cc4ccc(cc4)Oc4cc(ccc4OC)C[C@@H](C(=O)N[C@H](C)C(=O)N[C@@H](C)C(=O)N2C)N(C)C3=O)cc1` to `C=Cc1ccc(C[C@H]2C(=O)N[C@@H](C)C(=O)N(C)[C@H]3Cc4ccc(cc4)Oc4cc(ccc4OC)C[C@@H](C(=O)N[C@H](C)C(=O)N[C@@H](C)C(=O)N2C)N(C)C3=O)cc1`, the IC50 rises from 5.01 nM to 17 nM (3.4-fold).

Going from `COC(=O)C[C@@H]1NC(=O)[C@@H](C)NC(=O)[C@@H]2Cc3ccc(OC)c(c3)Oc3ccc(cc3)C[C@@H](C(=O)N2C)N(C)C(=O)[C@H](C)NC(=S)[C@H](Cc2ccc(OC)cc2)N(C)C1=O` to `COC(=O)C[C@@H]1NC(=O)[C@@H](C)NC(=O)[C@@H]2Cc3ccc(OC)c(c3)Oc3ccc(cc3)C[C@@H](C(=O)N2C)N(C)C(=O)[C@H](C)NC(=O)[C@H](Cc2ccc(OC)cc2)N(C)C1=O`, the IC50 rises from 4.79 nM to 41.7 nM (8.7-fold).

Compared with `COc1ccc(C[C@H]2C(=O)N[C@@H](C)C(=O)N(C)[C@H]3Cc4ccc(cc4)Oc4cc(ccc4OC)C[C@@H](C(=O)N[C@H](C)C(=O)N[C@@H](CS)C(=O)N2C)N(C)C3=O)cc1`, `COc1ccc(C[C@H]2C(=O)N[C@@H](C)C(=O)N(C)[C@H]3Cc4ccc(cc4)Oc4cc(ccc4OC)C[C@@H](C(=O)N[C@H](C)C(=O)N[C@@H](CO)C(=O)N2C)N(C)C3=O)cc1` is 26-fold lower in IC50: 363 nM for the first, 14.1 nM for the second. The second is the more potent here.

`COc1ccc(C[C@H]2C(=O)N[C@@H](C)C(=O)N(C)[C@H]3Cc4ccc(cc4)Oc4cc(ccc4OC)C[C@@H](C(=O)N[C@H](C)C(=O)N[C@@H](CCCO)C(=O)N2C)N(C)C3=O)cc1` and `COc1ccc(C[C@H]2C(=O)N[C@@H](C)C(=O)N(C)[C@H]3Cc4ccc(cc4)Oc4cc(ccc4OC)C[C@@H](C(=O)N[C@H](C)C(=O)N[C@@H](CCCCO)C(=O)N2C)N(C)C3=O)cc1` are within 1.5-fold of each other in IC50: 174 nM for the first, 219 nM for the second.

Going from `COc1ccc(C[C@H]2C(=O)N[C@@H](C)C(=O)N(C)[C@H]3Cc4ccc(c(O)c4)Oc4cc(ccc4O)C[C@@H](C(=O)N[C@H](C)C(=O)N[C@@H](C)C(=O)N2C)N(C)C3=O)cc1` to `COc1ccc(C[C@H]2C(=O)N[C@@H](C)C(=O)N(C)[C@H]3Cc4ccc(c(O)c4)Oc4cc(ccc4OC)C[C@@H](C(=O)N[C@H](C)C(=O)N[C@@H](C)C(=O)N2C)N(C)C3=O)cc1` (stereo in doubt; 39), the IC50 falls from 9120 nM to 4790 nM (1.9-fold). The second is the more potent here.

`COc1ccc(C[C@H]2C(=O)N[C@@H](C)C(=O)N(C)[C@H]3Cc4ccc(cc4)Oc4cc(ccc4OC)C[C@@H](C(=O)N[C@H](C)C(=O)N4CCC[C@H]4C(=O)N2C)N(C)C3=O)cc1` and `COc1ccc(C[C@H]2C(=O)N[C@@H](C)C(=O)N(C)[C@H]3Cc4ccc(cc4)Oc4cc(ccc4OC)C[C@@H](C(=O)N[C@H](C)C(=O)N4CCCC[C@H]4C(=O)N2C)N(C)C3=O)cc1` are within 1.5-fold of each other in IC50: 100 nM for the first, 97.7 nM for the second.

First: COc1ccc(C[C@H]2C(=O)N[C@@H](C)C(=O)N(C)[C@H]3Cc4ccc(cc4)Oc4cc(ccc4OC)C[C@@H](C(=O)N[C@H](C)C(=O)NC4(SCCS4)C(=O)N2C)N(C)C3=O)cc1
Second: C=C[C@@H]1NC(=O)[C@@H](C)NC(=O)[C@@H]2Cc3ccc(OC)c(c3)Oc3ccc(cc3)C[C@@H](C(=O)N2C)N(C)C(=O)[C@H](C)NC(=O)[C@H](Cc2ccc(OC)cc2)N(C)C1=O
The IC50 of the first is 25-fold higher: 631 nM for the first, 25.7 nM for the second.

First: COc1ccc(C[C@H]2C(=S)N[C@@H](C)C(=O)N(C)[C@H]3Cc4ccc(cc4)Oc4cc(ccc4OC)C[C@@H](C(=O)N[C@H](C)C(=S)N[C@@H](C)C(=O)N2C)N(C)C3=O)cc1
Second: COc1ccc(C[C@H]2C(=S)N[C@@H](C)C(=O)N(C)[C@H]3Cc4ccc(cc4)Oc4cc(ccc4OC)C[C@@H](C(=S)N[C@H](C)C(=O)N[C@@H](C)C(=O)N2C)N(C)C3=O)cc1
The IC50 of the first is 2.6-fold higher: 5.5 nM for the first, 2.14 nM for the second.

Going from `COc1ccc(C[C@H]2C(=O)N[C@@H](C)C(=O)N(C)[C@H]3Cc4ccc(c(O)c4)Oc4cc(ccc4OC)C[C@@H](C(=O)N[C@H](C)C(=O)N[C@@H](C)C(=O)N2C)N(C)C3=O)cc1O` to `COc1ccc(C[C@H]2C(=O)N[C@@H](C)C(=O)N(C)[C@H]3Cc4ccc(cc4)Oc4cc(ccc4OC)C[C@@H](C(=O)N[C@H](C)C(=O)N[C@@H](C)C(=O)N2C)N(C)C3=O)cc1O`, the IC50 falls from 15100 nM to 214 nM (71-fold). The second is the more potent here.

First: CCCc1ccc(C[C@H]2C(=O)N[C@@H](C)C(=O)N(C)[C@H]3Cc4ccc(cc4)Oc4cc(ccc4OC)C[C@@H](C(=O)N[C@H](C)C(=O)N[C@@H](C)C(=O)N2C)N(C)C3=O)cc1
Second: CCc1ccc(C[C@H]2C(=O)N[C@@H](C)C(=O)N(C)[C@H]3Cc4ccc(cc4)Oc4cc(ccc4OC)C[C@@H](C(=O)N[C@H](C)C(=O)N[C@@H](C)C(=O)N2C)N(C)C3=O)cc1
The IC50 of the first is 2.8-fold higher: 25.7 nM for the first, 9.33 nM for the second. The second is the more potent here.

Going from `COc1ccc(C[C@H]2C(=O)N[C@@H](C)C(=O)N(C)[C@H]3Cc4ccc(cc4)Oc4cc(ccc4OC)C[C@@H](C(=O)N[C@H](C)C(=O)N[C@@H](CC(=O)O)C(=O)N2C)N(C)C3=O)cc1` to `COc1ccc(C[C@H]2C(=O)N[C@@H](C)C(=O)N(C)[C@H]3Cc4ccc(cc4)Oc4cc(ccc4OC)C[C@@H](C(=O)N[C@H](C)C(=O)N[C@@H](CCC(=O)O)C(=O)N2C)N(C)C3=O)cc1`, the IC50 falls from 1200 nM to 219 nM (5.5-fold).

Compared with `COc1ccc(C[C@H]2C(=S)N[C@@H](C)C(=O)N(C)[C@H]3Cc4ccc(cc4)Oc4cc(ccc4O)C[C@@H](C(=O)N[C@H](C)C(=O)N[C@@H](C)C(=O)N2C)N(C)C3=O)cc1`, `COc1ccc(C[C@H]2C(=O)N[C@@H](C)C(=O)N(C)[C@H]3Cc4ccc(cc4)Oc4cc(ccc4O)C[C@@H](C(=O)N[C@H](C)C(=O)N[C@@H](C)C(=O)N2C)N(C)C3=O)cc1` [DEOXYBOUVARDIN] is 3.1-fold higher in IC50: 1.15 nM for the first, 3.55 nM for the second. The first is the more potent here.

`C=CC[C@@H]1NC(=O)[C@@H](C)NC(=O)[C@@H]2Cc3ccc(OC)c(c3)Oc3ccc(cc3)C[C@@H](C(=O)N2C)N(C)C(=O)[C@H](C)NC(=O)[C@H](Cc2ccc(OC)cc2)N(C)C1=O` and `COc1ccc(C[C@H]2C(=O)N[C@@H](C)C(=O)N(C)[C@H]3Cc4ccc(cc4)Oc4cc(ccc4OC)C[C@@H](C(=O)N[C@H](C)C(=O)N[C@@H](CC=O)C(=O)N2C)N(C)C3=O)cc1` are within 1.5-fold of each other in IC50: 38.9 nM for the first, 33.9 nM for the second.

`COc1ccc(C[C@H]2C(=O)N[C@@H](C)C(=O)N(C)[C@H]3Cc4ccc(cc4)Oc4cc(ccc4OC)C[C@@H](C(=O)N[C@H](C)C(=O)N[C@@H](CSC(C)=O)C(=O)N2C)N(C)C3=O)cc1` and `CCC[C@@H]1NC(=O)[C@@H](C)NC(=O)[C@@H]2Cc3ccc(OC)c(c3)Oc3ccc(cc3)C[C@@H](C(=O)N2C)N(C)C(=O)[C@H](C)NC(=O)[C@H](Cc2ccc(OC)cc2)N(C)C1=O` are within 1.5-fold of each other in IC50: 9.77 nM for the first, 13.8 nM for the second.

Going from `COc1ccc(C[C@H]2C(=O)N[C@@H](C)C(=O)N(C)[C@H]3Cc4ccc(cc4)Oc4cc(ccc4OC)C[C@@H](C(=O)N[C@H](C)C(=O)N[C@@H](CCCN=[N+]=[N-])C(=O)N2C)N(C)C3=O)cc1` to `COc1ccc(C[C@H]2C(=O)N[C@@H](C)C(=O)N(C)[C@H]3Cc4ccc(cc4)Oc4cc(ccc4OC)C[C@@H](C(=O)N[C@H](C)C(=O)N[C@@H](CCO)C(=O)N2C)N(C)C3=O)cc1`, the IC50 rises from 35.5 nM to 60.3 nM (1.7-fold).

Compared with `COc1ccc(C[C@H]2C(=S)N[C@@H](C)C(=O)N(C)[C@H]3Cc4ccc(cc4)Oc4cc(ccc4OC)C[C@@H](C(=O)N[C@H](C)C(=O)N[C@@H](C)C(=O)N2C)N(C)C3=O)cc1`, `COc1ccc(C[C@H]2C(=O)N[C@@H](C)C(=O)N(C)[C@H]3Cc4ccc(cc4)Oc4cc(ccc4OC)C[C@@H](C(=S)N[C@H](C)C(=O)N[C@@H](C)C(=O)N2C)N(C)C3=O)cc1` is 4.5-fold higher in IC50: 0.741 nM for the first, 3.31 nM for the second. The first is the more potent here.

First: COc1ccc2cc1Oc1ccc(cc1)C[C@H]1C(=O)N(C)[C@@H](C2)C(=O)N[C@H](C)C(=O)N[C@@H](C)C(=O)N(C)[C@@H](Cc2ccccc2)C(=O)N[C@@H](C)C(=O)N1C
Second: C[C@@H]1NC(=O)[C@@H](C)NC(=O)[C@@H]2Cc3ccc(O)c(c3)Oc3ccc(cc3)C[C@@H](C(=O)N2C)N(C)C(=O)[C@H](C)NC(=O)[C@H](Cc2ccccc2)N(C)C1=O
The IC50 of the first is 6.9-fold higher: 295 nM for the first, 42.7 nM for the second. The second is the more potent here.

Going from `COC(=O)CC[C@@H]1NC(=O)[C@@H](C)NC(=O)[C@@H]2Cc3ccc(OC)c(c3)Oc3ccc(cc3)C[C@@H](C(=O)N2C)N(C)C(=O)[C@H](C)NC(=O)[C@H](Cc2ccc(OC)cc2)N(C)C1=O` to `COc1ccc(C[C@H]2C(=O)N[C@@H](C)C(=O)N(C)[C@H]3Cc4ccc(cc4)Oc4cc(ccc4OC)C[C@@H](C(=O)N[C@H](C)C(=O)N[C@@H](CCSC)C(=O)N2C)N(C)C3=O)cc1`, the IC50 falls from 58.9 nM to 20.4 nM (2.9-fold).

First: COc1ccc(C[C@@H]2NC(=O)[C@H](C)NC(=O)[C@@H](C)NC(=O)[C@@H]3Cc4ccc(OC)c(c4)Oc4ccc(cc4)C[C@@H](C(=O)N3C)N(C)C(=O)[C@H](C)NC2=O)cc1
Second: COc1ccc(C[C@H]2C(=S)N[C@@H](C)C(=O)N(C)[C@H]3Cc4ccc(cc4)Oc4cc(ccc4OC)C[C@@H](C(=O)N[C@H](C)C(=O)N[C@@H](C)C(=S)N2C)N(C)C3=O)cc1
The IC50 of the first is 74-fold higher: 120 nM for the first, 1.62 nM for the second. The second is the more potent here.

Compared with `C[C@@H]1NC(=O)[C@@H](C)NC(=O)[C@@H]2Cc3cccc(c3)Oc3ccc(cc3)C[C@@H](C(=O)N2C)N(C)C(=O)[C@H](C)NC(=O)[C@H](Cc2ccccc2)N(C)C1=O`, `COc1ccc2cc1Oc1ccc(cc1)C[C@H]1C(=O)N(C)[C@@H](C2)C(=O)N[C@H](C)C(=O)N[C@@H](C)C(=O)N(C)[C@@H](Cc2ccc(C)cc2)C(=O)N[C@@H](C)C(=O)N1C` is 22-fold lower in IC50: 525 nM for the first, 24 nM for the second. The second is the more potent here.

In the case of `COc1ccc(C[C@H]2C(=O)N[C@@H](C)C(=O)N(C)[C@H]3Cc4ccc(cc4)Oc4cc(ccc4OC)C[C@@H](C(=O)N[C@H](C)C(=O)N4C(=O)CC[C@H]4C(=O)N2C)N(C)C3=O)cc1`, the IC50 is reported as 457 nM.

Same assay, conditions: p388

With `COc1ccc(C[C@H]2C(=O)N[C@@H](C)C(=O)N(C)[C@H]3Cc4ccc(c(O)c4)Oc4cc(ccc4OC)C[C@@H](C(=O)N[C@H](C)C(=O)N[C@@H](C)C(=O)N2C)N(C)C3=O)cc1` (stereo in doubt; 40) the pIC50 was 5.24.
